The text below walks through data of US20250009774A1, “COMPOSITIONS AND METHODS USING A COMBINATION OF OLEUROPEIN AND MAGNESIUM” (SOCIETE DES PRODUITS NESTLE S.A., priority 2021, published 2025).

The subject of this experiment is myotubes differentiated from C2C12 cells. Briefly: mitochondrial calcium elevation (mitochondrial aequorin luminescence) on caffeine stimulation. Type of experiment: cell-based. Particulars: 1 mM Mg^2+ + 3 μM Oea; C2C12-derived myotubes; 5 mM caffeine; n=32; P<0.05 Student's t-test; FIG. 1. The method, then: To test the effect of Oleuropein aglycone (Oea), Mg^2+ and their combination on mitochondrial activation in living cells, the inventors measured mitochondrial calcium elevation in myotubes differentiated from C2C12 cells.
C2C12 cells were purchased from ATCC. C2C12 cells were seeded in 384-well plates at a density of 4500 cells per well in DMEM medium, high glucose (Gibco)+10% fetal calf serum. Myotubes were differentiated from C2C12 cells by growing the cells in DMEM containing 2% horse serum, for 6 days.
Mitochondrial calcium measurements were carried out using myotubes infected with the adenovirus (from Sirion biotech) expressing the luminescent mitochondrially-targeted calcium sensor mitochondrial mutated aequorin (Montero et al., 2004). […] Myotubes were stimulated with 5 mM of caffeine and the total calcium transiting during stimulation was calculated as the area under the curve, during caffeine stimulation. Luminescence was measured at the FLIPR cell imaging reader (Molecular devices). Calibration of the luminescence data into Calcium concentration was carried out using an algorithm as described previously (Alvarez & Montero, 2002). Custom module analysis based on Excel (Microsoft) and GraphPad Prism 7.02 (GraphPad) software was used for quantification.

Structures are written as SMILES.

In the case of `C/C=C1/C(O)OC=C(C(=O)OC)[C@H]1CC(=O)OCCc1ccc(O)c(O)c1` (mixture of isomers) [Oleuropein aglycone], the “mitochondrial calcium rise: real measured effect of the combination vs expected theoretical effect (sum of Oea effect and Mg^2+ effect)” value was “synergies with Mg^2+ to activate mitochondria”.
